{"source": "patent US20200190135A1", "about": "“LASSO STRUCTURES AND THEIR SYNTHESIS” (ChromaCon AG, priority 2016, published 2020)", "format_in_all_cases": "in vitro ADME", "key": {"trypsin": {"test_system": "trypsin", "assay": "Proteolytic stability, incubation with trypsin", "conditions": "incubation for 24 h with trypsin (FIG. 13)", "description": "(§1) Proteolytic stability of lasso compounds L1, L2, and L3 in comparison to their branched macrocyclic compounds B1, B2, and B3 and the cyclic peptide analogue C1 (see FIG. 11) was tested in separate experiments by incubation for 24 h with chymotrypsin (FIG. 12), trypsin (FIG. 13) and proteinase K (FIG. 14)."}, "proteinase K": {"biological_target": "proteinase K (Parengyodontium album, UniProt P06873)", "sequence (P06873 106-384)": "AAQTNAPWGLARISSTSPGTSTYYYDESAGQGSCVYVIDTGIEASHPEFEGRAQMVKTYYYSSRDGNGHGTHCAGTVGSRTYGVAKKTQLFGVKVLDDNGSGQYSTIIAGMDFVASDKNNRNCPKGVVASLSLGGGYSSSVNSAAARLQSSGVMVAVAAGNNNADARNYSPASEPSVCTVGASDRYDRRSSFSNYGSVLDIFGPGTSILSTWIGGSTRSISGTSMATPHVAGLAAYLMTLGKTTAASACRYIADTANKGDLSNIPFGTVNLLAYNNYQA", "assay": "Proteolytic stability, incubation with proteinase K", "conditions": "incubation for 24 h with proteinase K (FIG. 14)", "description": "as §1"}, "[1]": {"assay": "Serum stability, incubation with human serum", "conditions": "incubation for 24 h with human serum (FIG. 16)", "description": "Serum stability of compounds L1, L2, and L3 in comparison to their branched macrocyclic compounds B1, B2, and B3, the cyclic peptide C1, and the linear C- and N-terminally unmasked derivative R1 (see FIG. 15) was tested by incubation for 24 h with human serum (FIG. 16)."}}, "note": "Numbered stars: 1 amine (or outer) side, 2 acyl side, 3 side chain; on linkers, the order of the positions; unused ones are H or OH. Square brackets hold non-standard residues; d marks the D form. Peptide text beside a SMILES is read from it. * marks the point of attachment. ξ: configuration not given here. X1 = O=C(NCCOCCN(CC(=O)[*:2])[*:1])c1ccc(F)cc1; X2 = c1cc2c(cc1CCN*)OCCOCCOCCOCCOCCOCCO2; Thr(3ξ) = CC(O)[C@H](N)C(=O)O; GABA = NCCCC(=O)O; Cam = NC(=O)C*", "data": [{"smiles": "CC(C)C[C@@H]1NC(=O)[C@H](C(C)O)NC(=O)[C@H](CCCCN)NC(=O)[C@@H](Cc2c[nH]c3ccccc23)NC(=O)[C@H](Cc2ccccc2)NC(=O)[C@H](CSCC(N)=O)NC(=O)CNC(=O)[C@H](Cc2ccccc2)NC(=O)CCCNC1=O", "note": "(stereo partly shown) [C1] (cyclo(C(Cam)F[dW]K[Thr(3ξ)]L[GABA]FG))", "values": [{"measurement": "stability versus trypsin degradation", "setting": "trypsin", "result": "similarly stable as L1-L3"}, {"measurement": "stability versus proteinase K degradation", "setting": "proteinase K", "result": "similarly stable as L1-L3"}]}, {"smiles": "CC(C)C[C@H](NC(=O)[C@@H](NC(=O)[C@H](CCCCN)NC(=O)[C@@H](Cc1c[nH]c2ccccc12)NC(=O)[C@H](Cc1ccccc1)NC(=O)[C@H](CSCC(N)=O)NC(=O)CNC(=O)[C@H](Cc1ccccc1)NC(=O)CNCCOCCNC(=O)c1ccc(F)cc1)[C@@H](C)O)C(=O)NCCCC(=O)NCCc1ccc2c(c1)OCCOCCOCCOCCOCCOCCO2", "note": "[L1] (H-[X1]FGC(Cam)F[dW]KTL[GABA]-X2)", "values": [{"measurement": "remaining at 24 h", "setting": "[1]; read-out: remaining compound at the final time point", "result": "~70", "unit": "%"}]}, {"smiles": "CC(C)C[C@H](NC(=O)[C@@H](NC(=O)[C@H](CCCCN)NC(=O)[C@@H](Cc1c[nH]c2ccccc12)NC(=O)[C@H](Cc1ccccc1)NC(=O)[C@H](CSCC(N)=O)NC(=O)CNC(=O)[C@@H](N)Cc1ccccc1)[C@@H](C)O)C(=O)O", "note": "[R1] (H-FGC(Cam)F[dW]KTL-OH)", "values": [{"measurement": "degradation in human serum (in words)", "setting": "[1]", "result": "degraded rapidly and completely"}]}]}
